This is an account of results in patent EP4644383A1 (Jiangsu Yahong Meditech Co., Ltd., priority 2022, dated 2024).

pIC50: −log10 of the molar value. Read-outs that look alike come from different tables or passages of the source.

One may read the IC50 as the concentration needed to halve the response being measured. As a reminder, the pIC50 is the negative decadic logarithm of the IC50, by convention in mol/L. The low end stands for a high IC50, the high end for a low IC50.

The target of experiment [1] is T1, FGFR1 (Homo sapiens, UniProt P11362).
T1 construct: cytoplasmic domain [398-822 (terminal) amino acids]; purchased Carna 08-133
Description: FGFR1 kinase activity inhibition assay (LanthaScreen TR-FRET). In kind it is biochemical. The note with it: for IC50: FGFR1 kinase, TR-FRET, read-out: IC50 (nM) FGFR1. On the procedure:
PV3552) and 10 mM EDTA were added to quench the kinase reaction, and incubated at 22°C for 60 minutes. • ⑤ The reaction was measured using a PerkinElmer EnVision multimode plate reader through TR-FRET dual wavelength detection. • 1. The RFU values were copied from the Envision program. • 2. The ratio of RFU 520nm/RFU 495nm was calculated. • 3. The value of the ratio was converted to a percentage inhibition value. % Inhibition = (max-data)/(max-min) × 100 [formula] "Min" represents the ratio of the control without enzyme, "max" represents the ratio of the DMSO control, and "data" represents the ratio of the compounds in wells with different concentrations. […] "Top" refers to the maximum response, "Bottom" refers to the minimum response, and "HillSlope" refers to the slope of the curve.
A general note: In TR-FRET formats the signal depends on donor and acceptor labels being close together.

Experiment [2] addresses T2, FGFR3 (Homo sapiens, UniProt P22607).
T2 construct: FGFR3's cytoplasmic domain [436-806 (terminal) amino acids]; purchased Carna 08-135
Description: FGFR3 kinase activity inhibition assay (LanthaScreen TR-FRET). In kind it is biochemical. The note with it: for IC50: FGFR3 kinase, TR-FRET, read-out: IC50 (nM) FGFR3; for Selectivity (X) FGFR1/FGFR3: ratio of IC50 FGFR1/FGFR3, selectivity towards FGFR3. The method in brief: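 Read-out is TR-FRET, with the 520 nm/495 nm emission ratio normalised to DMSO (max) and enzyme-free (min) controls. Enzyme was the FGFR3 cytoplasmic domain, residues 436-806. EDTA (10 mM) stopped the reaction, followed by 60 min at 22 °C before reading.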

T1 sequence (P11362 398-822): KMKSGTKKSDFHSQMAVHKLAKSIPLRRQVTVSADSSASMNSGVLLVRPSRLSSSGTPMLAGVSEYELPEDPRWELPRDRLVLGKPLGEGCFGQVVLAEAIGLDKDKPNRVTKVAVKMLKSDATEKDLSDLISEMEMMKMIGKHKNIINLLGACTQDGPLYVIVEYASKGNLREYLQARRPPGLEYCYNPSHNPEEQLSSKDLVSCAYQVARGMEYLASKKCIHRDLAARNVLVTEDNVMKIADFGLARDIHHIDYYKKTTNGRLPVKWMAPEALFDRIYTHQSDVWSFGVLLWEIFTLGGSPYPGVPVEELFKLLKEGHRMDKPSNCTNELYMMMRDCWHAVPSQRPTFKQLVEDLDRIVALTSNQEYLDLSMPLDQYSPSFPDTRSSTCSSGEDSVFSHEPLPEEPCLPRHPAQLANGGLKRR
T2 sequence (P22607 436-806): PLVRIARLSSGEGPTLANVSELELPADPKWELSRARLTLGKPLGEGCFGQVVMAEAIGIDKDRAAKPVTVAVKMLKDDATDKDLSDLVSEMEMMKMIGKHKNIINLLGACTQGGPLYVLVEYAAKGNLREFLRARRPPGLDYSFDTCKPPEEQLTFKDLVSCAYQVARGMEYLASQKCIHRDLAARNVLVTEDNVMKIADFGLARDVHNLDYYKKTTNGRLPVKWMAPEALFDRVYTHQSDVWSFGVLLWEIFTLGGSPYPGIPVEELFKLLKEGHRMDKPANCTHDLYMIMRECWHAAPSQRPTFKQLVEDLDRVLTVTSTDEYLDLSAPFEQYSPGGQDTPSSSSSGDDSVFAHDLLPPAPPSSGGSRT

As for `C[C@@H](Oc1ccc2[nH]nc(-c3cnn(CCN4CCN(S(C)(=O)=O)CC4)c3)c2n1)c1c(Cl)cncc1Cl` [Example 56, (R)-5-(1-(3,5-dichloropyridin-4-yl)ethoxy)-3-(1-(2-(4-(methylsulfonyl)piperazin-1-yl)ethyl)-1H-pyrazol-4-yl)-1H-pyrazolo[4,3-b]pyridine], the IC50 was 1 to 10 nM in experiment [1] and under 1 nM in experiment [2]. The “Selectivity (X) FGFR1/FGFR3” value in experiment [2] is listed as “A (A represents 1 ≤ multiple X<20)”.
Regarding `CC(=O)N1CCN(CCn2cc(-c3n[nH]c4ccc(O[C@H](C)c5c(Cl)cncc5Cl)nc34)cn2)CC1` [Example 57, (R)-1-(4-(2-(4-(5-(1-(3,5-dichloropyridin-4-yl)ethoxy)-1H-pyrazolo[4,3-b]pyridin-3-yl)-1H-pyrazol-1-yl)ethyl)piperazin-1-yl)ethan-1-one], in experiment [1], the IC50 was in the range of 1 to 10 nM. For the same compound, in experiment [2], the IC50 is under 1 nM and the “Selectivity (X) FGFR1/FGFR3” value is on record as “A (A represents 1 ≤ multiple X<20)”.
In the same order, the values of `C[C@@H](Oc1ccc2[nH]nc(-c3cnn(CC(=O)N4CCOCC4)c3)c2n1)c1c(Cl)cncc1Cl` [Example 63, (R)-2-(4-(5-(1-(3,5-dichloropyridin-4-yl)ethoxy)-1H-pyrazolo[4,3-b]pyridin-3-yl)-1H-pyrazol-1-yl)-1-morpholinoethan-1-one] are 10 to 100 nM, 1 to 10 nM and “A (A represents 1 ≤ multiple X<20)”.
For the compound `C[C@@H](Oc1ccc2[nH]nc(-c3cnn(CCN4CCCC4=O)c3)c2n1)c1c(Cl)cncc1Cl` [Example 64, (R)-1-(2-(4-(5-(1-(3,5-dichloropyridin-4-yl)ethoxy)-1H-pyrazolo[4,3-b]pyridin-3-yl)-1H-pyrazol-1-yl)ethyl)pyrrolidin-2-one], the IC50 in experiment [1] was 10 to 100 nM. Further, in experiment [2], the IC50 fell in the range of 1 to 10 nM and the “Selectivity (X) FGFR1/FGFR3” value was “A (A represents 1 ≤ multiple X<20)”.
In the case of `CNCCNS(=O)(=O)c1ccc2[nH]nc(-c3cnn(C)c3)c2c1` [Example 76, 3-(1-methyl-1H-pyrazol-4-yl)-N-(2-(methylamino)ethyl)-1H-indazole-5-sulfonamide], the IC50 in experiment [1] is over 100 nM. Also, in experiment [2], the IC50 was over 100 nM and the “Selectivity (X) FGFR1/FGFR3” value is given as “A (A represents 1 ≤ multiple X<20)”.
For `CC(Oc1ccc2[nH]nc(-c3cnn(C)c3)c2c1)c1ccnc2ccccc12` (stereo not drawn) [Example 87, 4-(1-((3-(1-methyl-1H-pyrazol-4-yl)-1H-indazol-5-yl)oxy)ethyl)quinoline], the IC50 in experiment [1] is over 100 nM. Besides, in experiment [2], the IC50 fell in the range of 10 to 100 nM and the “Selectivity (X) FGFR1/FGFR3” value is recorded as “B (B represents 20 ≤ multiple X<50)”.
Consider `Cc1ccc2ncccc2c1C(C)Oc1ncc2[nH]nc(-c3cnn(C)c3)c2n1` (stereo not drawn) [Example 110, 6-methyl-5-(1-((3-(1-methyl-1H-pyrazol-4-yl)-1H-pyrazino [4,3-d]pyrimidin-5-yl)oxy)ethyl)quinoline], for which the pIC50 in experiment [1] is 7.00 to 8.00; in experiment [2] it was 8.00 to 9.00. Also, in experiment [2], the “Selectivity (X) FGFR1/FGFR3” value is on record as “A (A represents 1 ≤ multiple X<20)”.
Regarding `CCc1ccc2ncccc2c1C(C)Oc1ccc2[nH]nc(-c3cnn(C)c3)c2c1` (stereo not drawn) [Example 111, 6-ethyl-5-(1-((3-(1-methyl-1H-pyrazol-4-yl)-1H-indazol-5-yl)oxy)ethyl)qu inoline], the results for the IC50 in experiment [1] and in experiment [2] were 10 to 100 nM and 1 to 10 nM, respectively. In experiment [2], the “Selectivity (X) FGFR1/FGFR3” value is recorded as “A (A represents 1 ≤ multiple X<20)”.
Take `Cc1ccc2nccnc2c1C(C)Oc1ccc2[nH]nc(-c3cnn(C)c3)c2c1` (stereo not drawn) [Example 112]: the IC50 in experiment [1] lay in the range of 10 to 100 nM. For the same compound, in experiment [2], the half-maximal inhibitory concentration (IC50) is under 1 nM and the “Selectivity (X) FGFR1/FGFR3” value is reported as “A (A represents 1 ≤ multiple X<20)”.
For `CCC(Oc1ccc2[nH]nc(-c3cnn(C)c3)c2c1)c1c(C)ccc2ncccc12` (stereo not drawn) [Example 113, 6-methyl-5-(1-((3-(1-methyl-1H-pyrazol-4-yl)-1H-indazol-5-yl)oxy)propyl)quinoline], the IC50 in experiment [1] lay in the range of 10 to 100 nM; in experiment [2], 1 to 10 nM. In experiment [2], the “Selectivity (X) FGFR1/FGFR3” value is “A (A represents 1 ≤ multiple X<20)”.
The matching figures for `CC(Oc1ccc2[nH]nc(-c3cnn(C)c3)c2c1)c1nccc2ncccc12` (stereo not drawn) [Example 120, 5-(1-((3-(1-methyl-1H-pyrazol-4-yl)-1H-indazol-5-yl)oxy)ethyl)-1,6-naphthyridine]: over 100 nM, 1 to 10 nM and “B (B represents 20 ≤ multiple X<50)”.
In the same order, the values of `Cc1cnc2cccc(C(C)Oc3ccc4[nH]nc(-c5cnn(C)c5)c4c3)c2c1` (stereo not drawn) [Example 128, 3-methyl-5-(1-((3-(1-methyl-1H-pyrazol-4-yl)-1H-indazol-5-yl)oxy)ethyl)qu inoline] are over 100 nM, 1 to 10 nM and “B (B represents 20 ≤ multiple X<50)”.
The matching figures for `CC(C)c1ccc2nccnc2c1C(C)Oc1ccc2[nH]nc(-c3cnn(C)c3)c2c1` (stereo not drawn) [Example 129, 6-isopropyl-5-(1-((3-(1-methyl-1H-pyrazol-4-yl)-1H-indazol-5-yl)oxy)ethyl)quino xaline]: 1 to 10 nM, 1 to 10 nM and “A (A represents 1 ≤ multiple X<20)”.
Turning to `CC(Oc1ccc2[nH]nc(-c3cnn(C)c3)c2c1)c1cc(C2CC2)cc2nccnc12` (stereo not drawn) [Example 139, 7-cyclopropyl-5-(1-((3-(1-methyl-1H-pyrazol-4-yl)-1H-indazol-5-yl)oxy)ethyl)qu inoxaline], the IC50 in experiment [1] is over 100 nM. Further, in experiment [2], the IC50 lay within 1 to 10 nM and the “Selectivity (X) FGFR1/FGFR3” value is “C (C represents 50 ≤ multiple X<100)”.
On to `CC(Oc1ccc2[nH]nc(-c3cnn(C)c3)c2c1)c1cc(C#N)cc2nccnc12` (stereo not drawn) [Example 141, 8-(1-((3-(1-methyl-1H-pyrazol-4-yl)-1H-indazol-5-yl)oxy)ethyl)qu inoxaline-6-carbonitrile], for which the IC50 in experiment [1] was in the range of 10 to 100 nM. Further, in experiment [2], the IC50 was under 1 nM and the “Selectivity (X) FGFR1/FGFR3” value was “B (B represents 20 ≤ multiple X<50)”.
The matching figures for `CC(Oc1ccc2[nH]nc(-c3cnn(C)c3)c2c1)c1cc(Br)cc2nccnc12` (stereo not drawn) [Example 143, 7-bromo-5-(1-((3-(1-methyl-1H-pyrazol-4-yl)-1H-indazol-5-yl)oxy)ethyl)quinoxaline]: 10 to 100 nM, 1 to 10 nM and “B (B represents 20 ≤ multiple X<50)”.
On to `CC(C)c1cc(C(C)Oc2ccc3[nH]nc(-c4cnn(C)c4)c3c2)c2nccnc2c1` (stereo not drawn) [Example 144, 7-isopropyl-5-(1-((3-(1-methyl-1H-pyrazol-4-y1)-1H-indazol-5-yl)oxy)ethyl)quino xaline], for which, in experiment [1], the pIC50 was under 7.00. Also, in experiment [2], the pIC50 was over 9.00 and the “Selectivity (X) FGFR1/FGFR3” value is listed as “C (C represents 50 ≤ multiple X<100)”.
In the case of `CC(Oc1ccc2[nH]nc(-c3cnn(C)c3)c2c1)c1cc(C(F)F)cc2nccnc12` (stereo not drawn) [Example 145, 7-(difluoromethyl)-5-(1-((3-(1-methyl-1H-pyrazol-4-yl)-1H-indazol-5-yl)oxy)ethyl)qu inoxaline], in experiment [1], the IC50 is 1 to 10 nM. For the same compound, in experiment [2], the IC50 is under 1 nM and the “Selectivity (X) FGFR1/FGFR3” value is “A (A represents 1 ≤ multiple X<20)”.
For `CC(Oc1ccc2[nH]nc(-c3cnn(C)c3)c2c1)c1cccc2ncc(N)cc12` (stereo not drawn) [Example 147, 5-(1-((3-(1-methyl-1H-pyrazol-4-yl)-1H-indazol-5-yl)oxy)ethyl)qu inoline-3-amine], the IC50 in experiment [1] was in the range of 10 to 100 nM. Besides, in experiment [2], the IC50 fell in the range of 1 to 10 nM and the “Selectivity (X) FGFR1/FGFR3” value is given as “A (A represents 1 ≤ multiple X<20)”.
In the case of `COc1cc(C(C)Oc2ccc3[nH]nc(-c4cnn(C)c4)c3c2)c2cccnc2c1` (stereo not drawn) [Example 148, 7-methoxy-5-(1-((3-(1-methyl-1H-pyrazol-4-yl)-1H-indazol-5-yl)oxy)ethyl)qu inoline], in experiment [1], the IC50 was over 100 nM. Besides, in experiment [2], the IC50 was in the range of 1 to 10 nM and the “Selectivity (X) FGFR1/FGFR3” value is given as “C (C represents 50 ≤ multiple X<100)”.
For the compound `CC(Oc1ccc2[nH]nc(-c3ccc(N4CCS(=O)(=O)CC4)nc3)c2c1)c1cccc2nccnc12` (stereo not drawn) [Example 149, 4-(5-(5-(1-(quinoxalin-5-yl)ethoxy)-1H-indazol-3-yl)pyridin-2-yl)thiomorpholine1,1-dioxide], the IC50 in experiment [1] was in the range of 10 to 100 nM. In experiment [2], the IC50 is under 1 nM and the “Selectivity (X) FGFR1/FGFR3” value is recorded as “B (B represents 20 ≤ multiple X<50)”.
The matching figures for `CC(Oc1ccc2[nH]nc(-c3cnn(C)c3)c2c1)c1cc(N)cc2ncccc12` (stereo not drawn) [Example 150, 5-(1-((3-(1-methyl-1H-pyrazol-4-yl)-1H-indazol-5-yl)oxy)ethyl)qu inoline-7-amine]: 1 to 10 nM, under 1 nM and “A (A represents 1 ≤ multiple X<20)”.
With `CC(Oc1ccc2[nH]nc(-c3cnn(CCS(=O)(=O)N(C)C)c3)c2c1)c1cccc2nccnc12` (stereo not drawn) [Example 160, N,N-dimethyl-2-(4-(5-(1-(quinoxalin-5-yl)ethoxy)-1H-indazol-3-yl)-1H-pyrazol-1-yl)ethane-1-sulfonamide], the figures for the IC50 in experiment [1] and in experiment [2] were over 100 nM and 1 to 10 nM, respectively. For the same compound, in experiment [2], the “Selectivity (X) FGFR1/FGFR3” value is recorded as “B (B represents 20 ≤ multiple X<50)”.
